The target in one data set is T1, human CYP11B2 (Homo sapiens, UniProt P19099).
T1 construct: The main elements of an expression plasmid include ORF of human CYP11B1 or human CYP11B2; expressed in transfected cells
T1 sequence (P19099 25-503): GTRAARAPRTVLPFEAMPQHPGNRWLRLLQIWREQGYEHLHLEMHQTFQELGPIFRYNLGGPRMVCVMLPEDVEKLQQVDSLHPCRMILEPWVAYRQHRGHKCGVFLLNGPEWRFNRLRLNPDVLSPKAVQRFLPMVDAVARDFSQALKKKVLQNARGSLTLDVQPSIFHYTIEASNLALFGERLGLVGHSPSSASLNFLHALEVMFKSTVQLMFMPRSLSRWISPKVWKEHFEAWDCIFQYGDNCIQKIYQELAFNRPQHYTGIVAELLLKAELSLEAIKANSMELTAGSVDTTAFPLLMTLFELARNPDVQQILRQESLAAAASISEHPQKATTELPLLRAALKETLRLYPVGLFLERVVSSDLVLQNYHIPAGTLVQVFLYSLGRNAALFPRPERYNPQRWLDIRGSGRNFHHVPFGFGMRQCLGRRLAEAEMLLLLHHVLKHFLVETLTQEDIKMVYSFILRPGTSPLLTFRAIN
The experiment in a line: G-402 cell enzyme experiment, human CYP11B2 (aldosterone production, HTRF). In kind it is cell-based. The note with it: G-402 cells stably expressing human CYP11B2; 1 μM 11-deoxycorticosterone; 16 h; aldosterone by HTRF. From the text: (§1) G-402 cell line was used as host cells to express (by transient or stable transfection) an enzyme of the human CYP11 family. Specifically, G-402 cell lines stably expressing human CYP11B1 and human CYP11B2 were established respectively. […] Therefore, the G-402 cell line is very suitable as a host cell for the ectopic expression of an enzyme of the CYP11 family.
(§2) The G-402 cell line, originally derived from renal myoblastoma, can be obtained from ATCC (CRL-1440). The main elements of an expression plasmid include ORF of human CYP11B1 or human CYP11B2, a suitable promoter (CMV promoter), and a suitable resistance marker (neomycin). The expression plasmid was transfected into G-402 cells by standard technology, and a specific antibiotic was then given for screening. The activity of the enzyme expressed by the screened monoclonal cells was assessed by 11-deoxycorticosterone (substrate of CYP11B2) and 11-deoxycortisol (substrate of CYP11B1).
(§3) The G-402 cells expressing CYP11 plasmid, as established in the above solution, were cultured in McCoy's 5a Modified Medium (ATCC Catalog No. 30-2007) containing 10% FCS and 400 μg/ml G418 in an incubator at 37° C. and 5% CO2. A cell enzyme experiment was carried out using DMEM/F12 medium containing 2.5% charcoal-treated FBS and an appropriate concentration of a substrate (1 μM 11-deoxycorticosterone or 1 μM 11-deoxycortisol). In order to detect the activity of the enzyme in the cells, the cells were plated in a 96-well plate and incubated for 16 h. The supernatant was then transfered and analyzed for the concentration of the expected product (the product of CYP11B2: aldosterone; the product of CYP11B1: cortisol). The concentrations of these products were determined by an HTRF experiment of CisBio.
(§4) In the cell enzyme experiment, the inhibitory effect of the test compound on the generated product can reflect the inhibitory effect thereof on the enzyme. The dose-dependent inhibition of the enzyme activity by the compound was calculated by plotting the concentration of the test compound (x axis) versus the measured product level (y axis). Then, the original data was fitted to a 4-parameter sigmoidal function (Morgan-Mercer-Flodin, MMF model) by least square method: y=(AB+Cx^D)/(B+x^D) in which A is the maximum y value, B is the EC50 determined by XLFit, C is the minimum y value, and D is the slope value. The maximum value A corresponds to the amount of the product detected without an inhibitor, and C corresponds to the amount of the product detected in the G402 cells expressing an empty plasmid.
(§5) The EC50 value of the compound of the present patent was determined by the above G-402 experiment system. […]
In general terms: In TR-FRET formats the signal depends on donor and acceptor labels being close together.

Another data set concerns the target T2, human CYP11B1 (Homo sapiens, UniProt P15538).
T2 construct: The main elements of an expression plasmid include ORF of human CYP11B1 or human CYP11B2; expressed in transfected cells
T2 sequence (P15538 25-503): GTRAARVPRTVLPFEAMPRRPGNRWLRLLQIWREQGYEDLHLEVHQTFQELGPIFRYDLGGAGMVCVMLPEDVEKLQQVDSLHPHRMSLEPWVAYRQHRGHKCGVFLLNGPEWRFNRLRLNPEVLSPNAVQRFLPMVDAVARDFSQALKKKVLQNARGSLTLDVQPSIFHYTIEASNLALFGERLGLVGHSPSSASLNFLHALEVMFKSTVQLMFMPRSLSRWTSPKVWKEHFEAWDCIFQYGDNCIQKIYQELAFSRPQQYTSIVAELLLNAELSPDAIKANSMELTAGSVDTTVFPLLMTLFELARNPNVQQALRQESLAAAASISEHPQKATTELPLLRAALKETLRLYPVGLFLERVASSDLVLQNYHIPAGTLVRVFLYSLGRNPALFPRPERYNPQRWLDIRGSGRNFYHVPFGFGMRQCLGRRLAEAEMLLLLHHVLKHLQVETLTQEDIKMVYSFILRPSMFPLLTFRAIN
The experiment in a line: G-402 cell enzyme experiment, human CYP11B1 (cortisol production, HTRF); selectivity of CYP11B2 over CYP11B1. In kind it is cell-based. The following applies: G-402 cells expressing human CYP11B1 or CYP11B2; selectivity for CYP11B2 over CYP11B1.
Description: as §1, §2, §3, §4, §5

Another data set concerns aldosterone. The experiment in a line: In vivo efficacy assay, ACTH challenge: plasma aldosterone. Further details: species or system cynomolgus monkeys. The following applies: for Aldosterone, 0: 0 hour after 5 μg/kg ACTH I.V. (given one hour after dosing); for Aldosterone, 0.5 h: 0.5 h after 5 μg/kg ACTH I.V. How it is done:
(§6) Male cynomolgus monkeys were gavaged (P.O.) with the compounds to be tested and divided into 0 mpk (vehicle group), 0.1 mpk, 0.3 mpk, 1 mpk, and 3 mpk dose groups. Each group was given 5 μg/kg ACTH intravenous injection (I.V.) after one hour. Blood samples were collected at −1 hour, 0 hour, 0.5 hours, 1.0 hour, 1.5 hours, 2 hours, and 3 hours after intravenous injection of ACTH. The volume was about 0.5 mL at each time point. The samples were centrifuged (3200 g, at 2-8° C. for 10 minutes) within one hour after collection. The contents of the plasma aldosterone, cortisol, corticosterone, 11-deoxycortisol, and 11-deoxycorticosterone at each time point were then analyzed by LC/MS-MS method.

Another data set has as its system cortisol. In words: In vivo efficacy assay, ACTH challenge: plasma cortisol. Further details: species or system cynomolgus monkeys. The following applies: for Cortisol, 0: 0 hour after 5 μg/kg ACTH I.V. (given one hour after dosing); for Cortisol, 1 h: 1 h after 5 μg/kg ACTH I.V. How it is done:
as §6

Data set [1] in a line: Pharmacokinetic assay in mice. In kind it is in vivo. The note with it: mouse, male Balb/c mice, plasma, table does not print the route (objective: oral administration, PO 5 mg/kg). How it is done:
Balb/c mice were used as test animals to study the pharmacokinetic behavior of the compounds of the present disclosure in mice (plasma) after oral administration.
Compounds of the present disclosure, made in house.
3 Balb/c mice per group, male; from Shanghai Bk Lab Animal Co., Ltd., with animal production license number (SCXK (Shanghai) 2013-0006 N0.311620400001794).
0.5 g of sodium carboxymethyl cellulose (CMC-Na, viscosity: 800-1200 Cps) was weighed and dissolved in 99 mL of purified water, and 1 ml of Tween 80 was added. These materials were uniformly mixed to form a clear solution.
Examples 1 and 2 were weighed and dissolved in the solution, and the mixtures were shaken well and ultrasonicated for 15 min to obtain colorless clear solutions with a concentration of 0.5 mg/mL.
Examples 1 and 2 were weighed, and 5% of DMSO was added based on the total administration volume; the mixture was vortexed and ultrasonicated for 2 min to ensure complete dissolution; then, 10% Solutol HS15 was added, and the mixture was vortexed and ultrasonicated for 2 min to achieve complete dissolution; finally, 85% PBS was added, and the mixture was vortexed and ultrasonicated for 5 min; the resulting mixture was filtered through a […] filter membrane to obtain a colorless, transparent, and clear solution with a concentration of 0.2 mg/mL.
After overnight fasting, 3 male Balb/c mice per group were administered orally (PO) at a dose of 5 mg/kg with an administration volume of 10 mL/kg.
After overnight fasting, 3 male Balb/c mice per group were administered intravenously (IV) at a dose of 1 mg/kg with an administration volume of 5 mL/kg.
0.04 mL of blood was collected from the orbit of the experimental animals before administration and at 0.25 h, 0.5 h, 1.0 h, 2.0 h, 4.0 h, 6.0 h, 8.0 h, and 24.0 h after administration and placed in an EDTA-2K test tube, and the test tube was centrifuged at 8000 rpm for 6 min at 4° C. to separate the plasma, which was stored at −80° C.; and the animals were fed 4 h after administration.
The final determination results were obtained by using LCMS/MS method.

SMILES strings stand for the structures.

What is called EC50 is the concentration at which the effect is half-maximal. Low readings indicate greater potency, high ones weaker potency. On human CYP11B2, `CCS(=O)(=O)N1CC(Oc2cncc(-c3ccc4c(c3)COC(=O)N4C)c2)C1` [Example 58, 6-(5-((1-(Ethylsulfonyl)azetidin-3-yl)oxy)pyridin-3-yl)-1-methyl-1,4-dihydro-2H-benzo[d][1,3]oxazin-2-one] yielded an EC50 of 48 nM.

Regarding `CN1C(=O)OCc2cc(-c3cncc(C4=CCN(S(=O)(=O)C5CC5)CC4)c3)ccc21` [Example 68, 6-(1′-(Cyclopropylsulfonyl)-1′,2′,3′,6′-tetrahydro-[3,4′-bipyridine]-5-yl)-1-methyl-1,4-dihydro-2H-benzo[d][1,3]oxazin-2-one], on human CYP11B1, the “hsF (human selective factor: ratio of CYP11B1 EC50 to CYP11B2 EC50)” value came out at 394×. In addition, the EC50 at human CYP11B2 stood at 7 nM.

Consider `CCC(=O)N[C@@H]1CCCc2c(-c3ccc4c(c3)OCC(=O)N4C)cncc21` [Example 2-A], for which the “hsF (human selective factor: ratio of CYP11B1 EC50 to CYP11B2 EC50)” value at human CYP11B1 stood at 174×.

On to `CN1C(=O)OCc2cc(-c3cncc(N4CC5(CN(C(=O)c6cnn(C)c6)C5)C4)c3)ccc21` [Example 60, 1-Methyl-6-(5-(6-(1-methyl-1H-pyrazole-4-carbonyl)-2,6-diazaspiro[3.3]heptan-2-yl)pyridin-3-yl)-1,4-dihydro-2H-benzo[d][1,3]oxazin-2-one], for which the “hsF (human selective factor: ratio of CYP11B1 EC50 to CYP11B2 EC50)” value on human CYP11B1 is more than 1279×.

Compound `CN1C(=O)CCc2cc(-c3cncc4c3CCC[C@H]4NC(=O)CC34CC(C3)C4)ccc21` [Example 37] displayed an EC50 at human CYP11B2 of 35 nM.

As a reminder, the AUC(0-inf) is the area under the concentration-time curve extrapolated to infinity. A word on the AUC(0-t): it is exposure summed from dosing to a finite time, without extrapolation to infinity. The term Cmax denotes the highest concentration seen after dosing. What is called Tmax is the time from dosing to the highest level. The term half-life denotes the time in which the quantity being followed falls by half. Read a low half-life as rapid decline. For `CCC(=O)N[C@@H]1CCCc2c(-c3ccc4c(c3)COC(=O)N4C)cncc21` [Example 1-A], the “Aldosterone, 0” value was 0.38 ng/mL in the data set on aldosterone (0.1 mpk P.O.), 0.23 ng/mL with aldosterone (0.3 mpk P.O.), 0.12 ng/mL in the data set on aldosterone (1 mpk P.O.) and 0.13 ng/mL with aldosterone (3 mpk P.O.). For the same compound, the “Aldosterone, 0.5 h” value is given as 0.33 ng/mL with aldosterone (0.1 mpk P.O.), 0.17 ng/mL with aldosterone (0.3 mpk P.O.), 0.15 ng/mL with aldosterone (1 mpk P.O.) and 0.09 ng/mL with aldosterone (3 mpk P.O.). In addition, the “hsF (human selective factor: ratio of CYP11B1 EC50 to CYP11B2 EC50)” value on human CYP11B1 stood at 144×. The “Cortisol, 0” value in the data set with cortisol (0.1 mpk P.O.) is recorded as 246 ng/mL; with cortisol (0.3 mpk P.O.), 230 ng/mL; in the data set with cortisol (1 mpk P.O.), 215 ng/mL; in the data set on cortisol (3 mpk P.O.) it was 225 ng/mL. Moreover, the “Cortisol, 1 h” value in the data set on cortisol (0.1 mpk P.O.) was found to be 360 ng/mL; with cortisol (0.3 mpk P.O.), 355 ng/mL; in the data set with cortisol (1 mpk P.O.) it was 315 ng/mL; in the data set with cortisol (3 mpk P.O.) it was 326 ng/mL. Besides, the AUC(0-inf) in data set [1] came to 20800 ng·h/mL. Further, the AUC(0-t) in data set [1] was 20800 ng·h/mL. For the same compound, the Cmax in data set [1] is 3770 ng/mL. Also, the Tmax in data set [1] was 18 min. The compound also gave a half-life in data set [1] of 162 min. In addition, the MRT inf in data set [1] (read-out: MRT0-∞) was 4.7 h. On human CYP11B2, this compound returned an EC50 of 70 nM.

Source of the values: patent publication US20260200931A1, “PYRIDINE POLYCYCLIC COMPOUND INHIBITOR, PREPARATION METHOD THEREFOR AND USE THEREOF” (SHANGHAI HANSOH BIOMEDICAL CO., LTD, priority 2022, published 2026).
